Source: ChEMBL document CHEMBL4130416, “Glycine-replaced derivatives of [Pro3,DLeu9]TL, a temporin L analogue: Evaluation of antimicrobial, cytotoxic and hemolytic activities” (Eur J Med Chem, 2017)
Converted amounts (≈) assume the structure as drawn. The source made the active and inactive calls. No cut-off for these calls is given here. Where a SMILES comes first, the peptide text is derived from it. [ ]: non-standard residue; d: D form.

What was measured:
Pseudomonas syringae = assay: Antimicrobial activity against Pseudomonas syringae pv tabaci NCPPB 1918 after 18 to 20 hrs by microbroth dilution method; assay type: functional, Pseudomonas amygdali pv. tabaci
[1] = Metabolic stability in 90% human serum assessed as parent compound remaining at […] after 120 mins by RP-UHPLC analysis; assay type: ADME, cell-free; settings: read-out: Stability
Acinetobacter baumannii [2] = assay: Antimicrobial activity against Acinetobacter baumannii ATCC 19606 after 18 to 20 hrs by microbroth dilution method; assay type: functional; settings: ATCC 19606 = CIP 70.34 = JCM 6841
[3] = Hemolytic activity against human erythrocytes at 12.5 uM after 40 mins relative to control; assay type: ADME, cell-based, Erythrocyte; settings: read-out: Activity
HaCaT [4] = assay: Cytotoxicity against human HaCaT cells at 1.56 to 6.25 uM after 24 hrs by MTT assay; assay type: cell-based
Escherichia coli [5] = assay: Antimicrobial activity against multisensitive Escherichia coli clinical isolate 1 after 18 to 20 hrs by microbroth dilution method; assay type: functional
Candida albicans [6] = assay: Antimicrobial activity against Candida albicans ATCC 10231 after 18 to 20 hrs by microbroth dilution method; assay type: functional
Pichia kudriavzevii = assay: Antimicrobial activity against Candida krusei ATCC 6258 after 18 to 20 hrs by microbroth dilution method; assay type: functional
[7] = Hemolytic activity against human erythrocytes at 6.25 uM after 40 mins relative to control; assay type: ADME, cell-based, Erythrocyte; settings: read-out: Activity
Staphylococcus aureus [8] = assay: Antimicrobial activity against beta-lactamase resistant Staphylococcus aureus after 18 to 20 hrs by microbroth dilution method; assay type: functional
HaCaT [9] = assay: Cytotoxicity against human HaCaT cells at 12.5 uM after 24 hrs by MTT assay relative to control; assay type: cell-based
[10] = system: Staphylococcus epidermidis; assay: Antimicrobial activity against Staphylococcus epidermidis ATCC 12228 after 18 to 20 hrs by microbroth dilution method; assay type: functional
HaCaT [11] = assay: Cytotoxicity against human HaCaT cells at 50 uM after 24 hrs by MTT assay relative to control; assay type: cell-based
Candida albicans [12] = assay: Antimicrobial activity against Candida albicans clinical isolate 2 after 18 to 20 hrs by microbroth dilution method; assay type: functional
[13] = Hemolytic activity against human erythrocytes at 3.125 uM after 40 mins relative to control; assay type: ADME, cell-based, Erythrocyte; settings: read-out: Activity
Pseudomonas aeruginosa [14] = assay: Antimicrobial activity against multisensitive Pseudomonas aeruginosa after 18 to 20 hrs by microbroth dilution method; assay type: functional
[15] = Hemolytic activity against human erythrocytes at 50 uM after 40 mins relative to control; assay type: ADME, cell-based, Erythrocyte; settings: read-out: Activity
Escherichia coli [16] = assay: Antimicrobial activity against multisensitive Escherichia coli clinical isolate 2 after 18 to 20 hrs by microbroth dilution method; assay type: functional
[17] = Metabolic stability in 90% human serum assessed as parent compound remaining at 0.2 mM after 45 mins by RP-UHPLC analysis; assay type: ADME, cell-free; settings: read-out: Stability
[18] = Hemolytic activity against human erythrocytes at 25 uM after 40 mins relative to control; assay type: ADME, cell-based, Erythrocyte; settings: read-out: Activity
Staphylococcus aureus [19] = assay: Antimicrobial activity against methicillin resistant Staphylococcus aureus clinical isolate 2 after 18 to 20 hrs by microbroth dilution method; assay type: functional
HaCaT [20] = assay: Cytotoxicity against human HaCaT cells at 25 uM after 24 hrs by MTT assay relative to control; assay type: cell-based
Priestia megaterium = assay: Antimicrobial activity against Bacillus megaterium Bm11 after 18 to 20 hrs by microbroth dilution method; assay type: functional
Escherichia coli [21] = assay: Antimicrobial activity against Escherichia coli D21 after 18 to 20 hrs by microbroth dilution method; assay type: functional
Staphylococcus aureus [22] = assay: Antimicrobial activity against methicillin resistant Staphylococcus aureus clinical isolate 1 after 18 to 20 hrs by microbroth dilution method; assay type: functional
Pseudomonas aeruginosa [23] = assay: Antimicrobial activity against Pseudomonas aeruginosa ATCC 27853 after 18 to 20 hrs by microbroth dilution method; assay type: functional
Staphylococcus aureus [24] = assay: Antimicrobial activity against macrolid resistant Staphylococcus aureus after 18 to 20 hrs by microbroth dilution method; assay type: functional
Staphylococcus aureus [25] = assay: Antimicrobial activity against Staphylococcus aureus Cowan I after 18 to 20 hrs by microbroth dilution method; assay type: functional
Staphylococcus aureus [26] = assay: Antimicrobial activity against multisensitive Staphylococcus aureus after 18 to 20 hrs by microbroth dilution method; assay type: functional
Klebsiella pneumoniae = assay: Antimicrobial activity against multisensitive Klebsiella pneumoniae after 18 to 20 hrs by microbroth dilution method; assay type: functional
Candida albicans [27] = assay: Antimicrobial activity against Candida albicans clinical isolate 1 after 18 to 20 hrs by microbroth dilution method; assay type: functional
[28] = system: Staphylococcus epidermidis; assay: Antimicrobial activity against Staphylococcus epidermidis ATCC 12228 assessed as membrane-perturbation measured every minute for 120 mins by SYTOX green fluorescence dye influx assay; assay type: functional, organism-based
Acinetobacter baumannii [29] = assay: Antimicrobial activity against Acinetobacter baumannii ATCC 19606 assessed as induction of membrane-perturbation at MIC measured every minute for 120 mins by SYTOX green fluorescence dye influx assay; assay type: functional, organism-based; settings: ATCC 19606 = CIP 70.34 = JCM 6841
Candida albicans [30] = assay: Antimicrobial activity against Candida albicans ATCC 10231 assessed as induction of membrane-perturbation at MIC measured every minute for 10 mins by SYTOX green fluorescence dye influx assay; assay type: functional, organism-based
HaCaT [31] = assay: Cytotoxicity against human HaCaT cells at 6.25 uM after 24 hrs by MTT assay relative to control; assay type: cell-based

SMILES	MIC (Pseudomonas syringae) [µM]	remaining at 2 h [1] [%]	MIC (Acinetobacter baumannii [2]) [µM]	hemolysis at 40 min, 12.5 µM [3] [%]	Activity (HaCaT [4])	MIC (Escherichia coli [5]) [µM]	MIC (Candida albicans [6]) [µM]	MIC (Pichia kudriavzevii) [µM]	hemolysis at 40 min, 6.25 µM [7] [%]	MIC (Staphylococcus aureus [8]) [µM]	Activity (HaCaT [9]) [%]	MIC [10] [µM]	Activity (HaCaT [11]) [%]	MIC (Candida albicans [12]) [µM]	hemolysis at 40 min, 3.125 µM [13] [%]	Activity (HaCaT [20]) [%]	MIC (Priestia megaterium) [µM]	MIC (Escherichia coli [21]) [µM]	MIC (Pseudomonas aeruginosa [23]) [µM]	MIC (Staphylococcus aureus [25]) [µM]	also measured
CC[C@H](C)[C@H](NC(=O)[C@H](CCCNC(=N)N)NC(=O)CNC(=O)[C@@H](CC(C)C)NC(=O)[C@H](Cc1ccccc1)NC(=O)[C@H](CCCCN)NC(=O)[C@H](CO)NC(=O)[C@H](Cc1ccccc1)NC(=O)[C@H](Cc1c[nH]c2ccccc12)NC(=O)[C@@H]1CCCN1C(=O)[C@@H](NC(=O)[C@@H](N)Cc1ccccc1)C(C)C)C(=O)N[C@@H](CC(C)C)C(N)=O (H-FVPWFSKF[dL]GRIL-NH2)	12.5 (≈ 20.1 µg/mL)	20	12.5 (≈ 20.1 µg/mL)	6	Non-Toxic	50 (≈ 80.4 µg/mL)	3.12 (≈ 5.03 µg/mL)	3.12 (≈ 5.03 µg/mL)	3	12.5 (≈ 20.1 µg/mL)	20.63	6.25 (≈ 10.1 µg/mL)	91.58	25 (≈ 40.2 µg/mL)	1	57.52	3.12 (≈ 5.03 µg/mL)	12.5 (≈ 20.1 µg/mL)	50 (≈ 80.4 µg/mL)	12.5 (≈ 20.1 µg/mL)	MIC (Pseudomonas aeruginosa [14]): > 50 µM; hemolysis at 40 min, 50 µM [15]: 21%; MIC (Escherichia coli [16]): 50 µM (≈ 80.4 µg/mL); remaining at 0.75 h, 200 µM [17]: 45%; hemolysis at 40 min, 25 µM [18]: 7%; MIC (Staphylococcus aureus [19]): 12.5 µM (≈ 20.1 µg/mL); MIC (Staphylococcus aureus [22]): 12.5 µM (≈ 20.1 µg/mL); MIC (Staphylococcus aureus [24]): 12.5 µM (≈ 20.1 µg/mL); MIC (Staphylococcus aureus [26]): 12.5 µM (≈ 20.1 µg/mL); MIC (Klebsiella pneumoniae): > 50 µM; MIC (Candida albicans [27]): 25 µM (≈ 40.2 µg/mL)
CC[C@H](C)[C@H](NC(=O)[C@H](CCCNC(=N)N)NC(=O)[C@H](Cc1c[nH]c2ccccc12)NC(=O)[C@@H](CC(C)C)NC(=O)[C@H](Cc1ccccc1)NC(=O)[C@H](CCCCN)NC(=O)[C@H](CO)NC(=O)[C@H](Cc1ccccc1)NC(=O)[C@H](Cc1c[nH]c2ccccc12)NC(=O)[C@@H]1CCCN1C(=O)[C@@H](NC(=O)[C@@H](N)Cc1ccccc1)C(C)C)C(=O)N[C@@H](CC(C)C)C(N)=O (H-FVPWFSKF[dL]WRIL-NH2)	1.56 (≈ 2.71 µg/mL)	50	3.12 (≈ 5.43 µg/mL)	7	Non-Toxic	50 (≈ 86.9 µg/mL)	3.12 (≈ 5.43 µg/mL)	3.12 (≈ 5.43 µg/mL)	4	6.25 (≈ 10.9 µg/mL)	0	1.56 (≈ 2.71 µg/mL)	89.3	25 (≈ 43.5 µg/mL)	2	32.1	1.56 (≈ 2.71 µg/mL)	25 (≈ 43.5 µg/mL)	> 50	3.12 (≈ 5.43 µg/mL)	Activity [28]: Active; MIC (Pseudomonas aeruginosa [14]): > 50 µM; hemolysis at 40 min, 50 µM [15]: 37%; MIC (Escherichia coli [16]): 50 µM (≈ 86.9 µg/mL); remaining at 0.75 h, 200 µM [17]: 80%; hemolysis at 40 min, 25 µM [18]: 20%; MIC (Staphylococcus aureus [19]): 6.25 µM (≈ 10.9 µg/mL); Activity (Acinetobacter baumannii [29]): Active; Activity (Candida albicans [30]): Active; MIC (Staphylococcus aureus [22]): 6.25 µM (≈ 10.9 µg/mL); MIC (Staphylococcus aureus [24]): 6.25 µM (≈ 10.9 µg/mL); MIC (Staphylococcus aureus [26]): 6.25 µM (≈ 10.9 µg/mL); MIC (Klebsiella pneumoniae): > 50 µM; MIC (Candida albicans [27]): 25 µM (≈ 43.5 µg/mL)
CC[C@H](C)[C@H](NC(=O)[C@H](CCCNC(=N)N)NC(=O)[C@@H](Cc1c[nH]c2ccccc12)NC(=O)[C@@H](CC(C)C)NC(=O)[C@H](Cc1ccccc1)NC(=O)[C@H](CCCCN)NC(=O)[C@H](CO)NC(=O)[C@H](Cc1ccccc1)NC(=O)[C@H](Cc1c[nH]c2ccccc12)NC(=O)[C@@H]1CCCN1C(=O)[C@@H](NC(=O)[C@@H](N)Cc1ccccc1)C(C)C)C(=O)N[C@@H](CC(C)C)C(N)=O (H-FVPWFSKF[dL][dW]RIL-NH2)	3.12 (≈ 5.43 µg/mL)		3.12 (≈ 5.43 µg/mL)				3.12 (≈ 5.43 µg/mL)	3.12 (≈ 5.43 µg/mL)			19.21	1.56 (≈ 2.71 µg/mL)	96.77			35.34	3.12 (≈ 5.43 µg/mL)	25 (≈ 43.5 µg/mL)	50 (≈ 86.9 µg/mL)	3.12 (≈ 5.43 µg/mL)	Activity (HaCaT [31]): 15%
